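Grown in 96-well plates, cells were treated for 48 hours with each compound at five concentrations. Insufficient inhibition: endpoint recorded as highest concentration tested. GI50 marks 50% less growth.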 The source made the active and inactive calls. Cut-off read from the data, not from the text of the source: active = GI50 up to about 1.1 µM and inactive = higher.
What was measured:
Test in all cases: NCI anticancer screen, dose series, 48 h
[1] = system: SK-OV-3
[2] = system: UACC-62
[3] = system: RPMI-8226
[4] = system: COLO 205
[5] = system: NCI/ADR-RES
[6] = system: MDA-MB-231
[7] = system: HCT-116
[8] = system: U-251
[9] = system: PC-3
[10] = system: SN12C
[11] = system: OVCAR-3
[12] = system: MCF7
[13] = system: HL-60
[14] = system: LOX IMVI
[15] = system: OVCAR-4
[16] = system: NCI-H522
[17] = system: 786-0
[18] = system: SW-620
[19] = system: UO-31
[20] = system: SK-MEL-2

Measured: GI50

CCOC(=O)c1ccc(/N=C/C=C(\Nc2ccc(C(=O)OCC)cc2)c2ccc3ccccc3c2)cc1
inactive: [1] 30.2 µM | [2] 14 µM | [3] 18.7 µM | [4] 16.2 µM | [5] 21.5 µM | [6] 25.1 µM | [7] 31.4 µM | [8] 32.8 µM | [9] 31.3 µM | [10] 26.7 µM | [11] 23.1 µM | [12] 23.4 µM | [13] 25.4 µM | [14] 15.7 µM | [15] 26.4 µM | [16] 27.5 µM | [17] 23.3 µM | [18] 45.2 µM | [19] 40.8 µM | [20] 23.5 µM

COc1cc(/C=N\N(C)C)cc(/C=N/N(C)C)c1O
inactive: [1] 15.5 µM | [2] 28.1 µM | [3] 19.6 µM | [4] 17.1 µM | [5] 25.4 µM | [6] 25.8 µM | [7] 29.8 µM | [8] 21.1 µM | [9] 16.4 µM | [10] 14.4 µM | [11] 17.3 µM | [12] > 100 µM | [13] 9.71 µM | [14] 25.1 µM | [15] 49.2 µM | [16] 65.9 µM | [17] 24.4 µM | [18] 46.7 µM | [19] 22 µM | [20] 7.89 µM

NCCN1CC2CCC(CC2)C1
inactive: [1] > 10 µM | [2] > 10 µM | [3] > 10 µM | [4] > 10 µM | [5] > 10 µM | [6] > 10 µM | [7] > 10 µM | [8] > 10 µM | [9] > 10 µM | [10] > 10 µM | [11] > 10 µM | [12] > 10 µM | [13] > 10 µM | [14] > 10 µM | [15] > 10 µM | [16] > 10 µM | [17] > 10 µM | [18] > 10 µM | [19] > 10 µM | [20] > 10 µM

CCOC(=O)C1=C(N)N2C(=N[C@H]3CCCC[C@@H]32)N=C1
inactive: [1] > 100 µM | [2] > 100 µM | [3] > 100 µM | [4] > 100 µM | [5] > 100 µM | [6] > 100 µM | [7] > 100 µM | [8] > 100 µM | [9] > 100 µM | [10] > 100 µM | [11] > 100 µM | [12] > 100 µM | [13] > 100 µM | [14] > 100 µM | [15] 37 µM | [16] > 100 µM | [17] > 100 µM | [18] > 100 µM | [19] > 100 µM | [20] > 100 µM

CCCOc1ccc(-c2nc(-c3ccc(/N=C/c4ccc(N(CCOS(C)(=O)=O)CCOS(C)(=O)=O)cc4C)cc3)cs2)cc1
inactive: [1] 5.93 µM | [2] 5.31 µM | [3] 61.1 µM | [4] 2.21 µM | [5] 23.6 µM | [6] 34 µM | [7] 29.4 µM | [8] 27.9 µM | [9] 18.5 µM | [10] 16.8 µM | [11] 18.2 µM | [12] 15.2 µM | [13] 5.05 µM | [14] 14.9 µM | [15] 34.1 µM | [16] 2.16 µM | [17] 3.35 µM | [18] 25.7 µM | [19] 11.7 µM | [20] 24.5 µM

Cc1ccc(C(=O)N(C2CCCCC2)C2CCCCC2)cc1/N=N/N(C)C
inactive: [1] 17.8 µM | [2] 7.78 µM | [3] 8.75 µM | [4] 17.7 µM | [5] 19.5 µM | [6] 12.6 µM | [7] 5.51 µM | [8] 18.4 µM | [9] 10.4 µM | [10] 15.4 µM | [11] 6.34 µM | [12] 14.9 µM | [13] 6.07 µM | [14] 15.8 µM | [15] 10.4 µM | [16] 6.01 µM | [17] 15.3 µM | [18] 8.83 µM | [19] 12.8 µM | [20] 2.76 µM

Cc1cccc(/C=N/NC(=S)NC(C)(C)C)n1
inactive: [1] > 100 µM | [2] 66.4 µM | [3] 32.9 µM | [4] 6.14 µM | [5] 33.7 µM | [6] 34.6 µM | [7] 19.7 µM | [8] 93.3 µM | [9] 23.7 µM | [10] > 100 µM | [11] 30.8 µM | [12] 18.5 µM | [13] 85.5 µM | [14] 66.5 µM | [15] 62.7 µM | [16] 14.5 µM | [17] 76.9 µM | [18] 16 µM | [19] 62.4 µM | [20] > 100 µM

O=c1[nH][nH]c(=O)n1CCCCCCn1c(=O)[nH][nH]c1=O
inactive: [1] > 100 µM | [2] > 100 µM | [3] > 100 µM | [4] > 100 µM | [5] > 100 µM | [6] > 100 µM | [7] > 100 µM | [8] > 100 µM | [9] > 100 µM | [10] > 100 µM | [11] > 100 µM | [12] > 100 µM | [13] > 100 µM | [14] > 100 µM | [15] > 100 µM | [16] > 100 µM | [17] > 100 µM | [18] > 100 µM | [19] > 100 µM | [20] > 100 µM

O=C(C[n+]1ccccc1)N/N=C(\Cc1nc2ccc([N+](=O)[O-])cc2nc1O)C(=O)Nc1cc(Cl)c(Cl)cc1Cl
inactive: [1] > 100 µM | [2] > 100 µM | [3] > 100 µM | [4] 76.2 µM | [5] 60.1 µM | [6] 41.9 µM | [7] > 100 µM | [8] > 100 µM | [9] > 100 µM | [10] > 100 µM | [11] 76 µM | [12] 67.3 µM | [13] > 100 µM | [14] 60.1 µM | [15] 79.4 µM | [16] 61.8 µM | [17] > 100 µM | [18] > 100 µM | [19] 50.4 µM | [20] > 100 µM

CN(C)c1ccc(/C=N\NC(=O)CSCC(=O)N/N=C/c2ccc(N(C)C)cc2)cc1
inactive: [1] > 100 µM | [2] 35.1 µM | [3] 33.3 µM | [4] 48 µM | [5] 36 µM | [6] 13.7 µM | [7] 46.9 µM | [8] 25.9 µM | [9] 45.2 µM | [10] 31.2 µM | [11] 68.9 µM | [12] 40.5 µM | [13] 70.5 µM | [14] 33.2 µM | [15] 43.9 µM | [16] 27.6 µM | [17] 55.1 µM | [18] > 100 µM | [19] 30.8 µM | [20] 29.9 µM
